For 20 compounds, IC50 results are on record in US10479780B2, “Aminopyrazole derivatives” (Chugai Seiyaku Kabushiki Kaisha, priority 2015, dated 2019).

The structures appear in SMILES notation. Like-named read-outs stand apart in the source and are kept apart here.

Common to all, as to type: biochemical
In one experiment the target is T1, human Src enzyme (Homo sapiens, UniProt P12931).
T1 construct: purchased Carna Biosciences, Inc. 08-173
Kind of experiment: Src enzyme inhibitory activity (time-resolved fluorometry, biotinylated peptide phosphorylation). The conditions noted are these: read-out: SRC_IC50. In a few lines:
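Compounds were tested for blocking tyrosine phosphorylation of a biotinylated peptide substrate by recombinant human Src. Phosphorylated product was quantified by time-resolved fluorometry using europium cryptate and XL665 conjugates, and IC50 was calculated against the compound-free control.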

A further experiment addresses T2, human Lck enzyme (Homo sapiens, UniProt P06239).
T2 construct: purchased Carna Biosciences, Inc. 08-170
As to the kind of experiment: Lck enzyme inhibitory activity (time-resolved fluorometry, biotinylated peptide phosphorylation). The conditions noted are these: read-out: LCK_IC50. In a few lines: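 Readout pairs a europium cryptate-labelled anti-phosphotyrosine antibody with XL665-streptavidin, measured by time-resolved fluorescence. IC50 derived from percent inhibition against untreated controls.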

In another experiment the target is T3, human Yes1 enzyme (Homo sapiens, UniProt P07947).
T3 construct: made in house
Kind of experiment: Yes1 enzyme inhibitory activity (time-resolved fluorometry, biotinylated peptide phosphorylation). The conditions noted are these: read-out: YES_IC50. Summed up: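 Inhibition was expressed against a compound-free control to give IC50, using TR-FRET read-out (Eu-cryptate anti-pTyr antibody, streptavidin-XL665).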

[1] abbreviates: biotinylated peptide phosphorylation.

T3 sequence (P07947 whole entry): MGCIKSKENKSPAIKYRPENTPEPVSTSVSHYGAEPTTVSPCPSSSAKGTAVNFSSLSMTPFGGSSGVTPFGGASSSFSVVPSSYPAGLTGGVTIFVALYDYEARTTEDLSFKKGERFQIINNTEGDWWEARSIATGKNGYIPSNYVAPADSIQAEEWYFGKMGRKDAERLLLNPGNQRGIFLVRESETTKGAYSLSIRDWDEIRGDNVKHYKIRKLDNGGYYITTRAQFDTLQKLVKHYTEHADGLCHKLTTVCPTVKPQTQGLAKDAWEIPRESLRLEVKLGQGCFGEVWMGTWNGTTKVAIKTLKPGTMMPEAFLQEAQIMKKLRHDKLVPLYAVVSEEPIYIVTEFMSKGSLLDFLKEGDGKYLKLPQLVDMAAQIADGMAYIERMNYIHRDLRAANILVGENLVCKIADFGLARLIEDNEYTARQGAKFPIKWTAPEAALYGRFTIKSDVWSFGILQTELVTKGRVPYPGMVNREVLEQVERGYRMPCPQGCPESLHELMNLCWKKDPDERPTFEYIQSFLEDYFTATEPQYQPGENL
T2 sequence (P06239 whole entry): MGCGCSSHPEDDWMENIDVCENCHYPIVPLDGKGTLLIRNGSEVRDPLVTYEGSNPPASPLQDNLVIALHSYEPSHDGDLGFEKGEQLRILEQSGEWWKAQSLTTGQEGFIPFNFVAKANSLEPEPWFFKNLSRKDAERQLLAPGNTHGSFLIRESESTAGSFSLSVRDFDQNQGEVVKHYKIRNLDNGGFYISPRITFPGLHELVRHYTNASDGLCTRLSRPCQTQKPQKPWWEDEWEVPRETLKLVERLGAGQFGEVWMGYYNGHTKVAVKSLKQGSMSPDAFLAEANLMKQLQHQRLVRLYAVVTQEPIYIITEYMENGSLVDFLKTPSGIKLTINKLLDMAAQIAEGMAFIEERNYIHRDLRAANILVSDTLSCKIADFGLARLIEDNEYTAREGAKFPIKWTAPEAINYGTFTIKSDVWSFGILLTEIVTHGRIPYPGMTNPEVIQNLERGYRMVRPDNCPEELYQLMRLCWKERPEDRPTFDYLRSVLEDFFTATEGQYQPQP
T1 sequence (P12931 whole entry): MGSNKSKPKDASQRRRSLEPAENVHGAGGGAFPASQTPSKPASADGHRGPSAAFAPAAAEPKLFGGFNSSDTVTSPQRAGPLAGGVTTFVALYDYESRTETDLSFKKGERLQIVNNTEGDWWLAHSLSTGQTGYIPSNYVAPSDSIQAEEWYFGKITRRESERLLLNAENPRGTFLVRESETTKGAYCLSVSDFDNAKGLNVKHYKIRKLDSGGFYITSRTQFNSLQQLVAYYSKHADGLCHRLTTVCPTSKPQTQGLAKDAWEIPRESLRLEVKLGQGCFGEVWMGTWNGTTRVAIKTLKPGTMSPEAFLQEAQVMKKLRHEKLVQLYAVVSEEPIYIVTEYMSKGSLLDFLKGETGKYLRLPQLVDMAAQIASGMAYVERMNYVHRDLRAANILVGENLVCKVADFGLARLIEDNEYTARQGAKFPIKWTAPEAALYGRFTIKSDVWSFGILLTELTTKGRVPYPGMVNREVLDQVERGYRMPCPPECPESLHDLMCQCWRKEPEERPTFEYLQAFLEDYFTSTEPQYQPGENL

Consider `Cc1cc(Oc2ccccc2F)cc(F)c1-n1ncc(C(=O)c2cc3cc(OCC(F)F)c(NC4CN(S(C)(=O)=O)C4)cc3[nH]2)c1N` [Example 4-23-027, [5-amino-1-[2-fluoro-4-(2-fluorophenoxy)-6-methylphenyl]pyrazol-4-yl]-[5-(2,2-difluoroethoxy)-6-[(1-methylsulfonylazetidin-3-yl)amino]-1H-indol-2-yl]methanone], for which the values for the IC50 at human Src enzyme (setting [1]), on human Lck enzyme (setting [1]) and on human Yes1 enzyme (setting [1]) were 16 nM, 7.6 nM and 1.9 nM, respectively.

Take `Cc1cc2cc(C(=O)c3cnn(-c4ccc(Oc5ccccc5F)cc4C)c3N)[nH]c2cc1NS(C)(=O)=O` [Example 4-2-053, N-[2-[5-amino-1-[4-(2-fluorophenoxy)-2-methylphenyl]pyrazole-4-carbonyl]-5-methyl-1H-indol-6-yl]methanesulfonamide]: the IC50 worked out at 19 nM on human Src enzyme (setting [1]), 5.1 nM on human Lck enzyme (setting [1]) and 0.34 nM on human Yes1 enzyme (setting [1]).

As to `Cc1cc2cc(C(=O)c3cnn(-c4cnc(Oc5c(F)cccc5F)cc4C)c3N)[nH]c2cc1N1CCOCC1` [Example 4-2-124, [5-amino-1-[6-(2,6-difluorophenoxy)-4-methylpyridin-3-yl]pyrazol-4-yl]-(5-methyl-6-morpholin-4-yl-1H-indol-2-yl)methanone], the figures for the IC50 on human Src enzyme (setting [1]), at human Lck enzyme (setting [1]) and at human Yes1 enzyme (setting [1]) were 34 nM, 6.9 nM and 4.1 nM, respectively.

With `Cc1cc(C#N)cc(S(=O)(=O)Nc2cc3[nH]c(C(=O)c4cnn(-c5cnc(Oc6ccccc6F)cc5C)c4N)cc3cc2C)n1` [Example 5-1-481, N-[2-[5-amino-1-[6-(2-fluorophenoxy)-4-methylpyridin-3-yl]pyrazole-4-carbonyl]-5-methyl-1H-indol-6-yl]-4-cyano-6-methylpyridine-2-sulfonamide], the IC50 on human Src enzyme (setting [1]) is 450 nM; at human Lck enzyme (setting [1]), 110 nM; on human Yes1 enzyme (setting [1]), 5.4 nM.

In the case of `Cc1cc(Oc2ccccc2F)ccc1-n1ncc(C(=O)c2cc3cc(F)c(N4CCOCC4)cc3[nH]2)c1N` [Example 5-1-119, [5-amino-1-[4-(2-fluorophenoxy)-2-methylphenyl]pyrazol-4-yl]-(5-fluoro-6-morpholin-4-yl-1H-indol-2-yl)methanone], the figures for the IC50 at human Src enzyme, on human Lck enzyme and at human Yes1 enzyme were 15 nM, 4.8 nM and 1.8 nM, respectively.

For the compound `Cc1cc2cc(C(=O)c3cnn(-c4ccc(Oc5cccc(F)c5F)cc4C)c3N)[nH]c2cc1NS(C)(=O)=O` [Example 4-2-054, N-[2-[5-amino-1-[4-(2,3-difluorophenoxy)-2-methylphenyl]pyrazole-4-carbonyl]-5-methyl-1H-indol-6-yl]methanesulfonamide], the IC50 was 62 nM at human Src enzyme (setting [1]), 15 nM at human Lck enzyme (setting [1]) and 1.5 nM at human Yes1 enzyme (setting [1]).

Take `Cc1cc(Oc2ccccc2F)ccc1-n1ncc(C(=O)c2cc3cc(OCC(F)F)c(N4C(=O)[C@@H]5C[C@H](NC(=O)OCC(C)C)CN5C4=O)cc3[nH]2)c1N` [Example 5-1-274, 2-methylpropyl N-[(6S,7aS)-2-[2-[5-amino-1-[4-(2-fluorophenoxy)-2-methylphenyl]pyrazole-4-carbonyl]-5-(2,2-difluoroethoxy)-1H-indol-6-yl]-1,3-dioxo-5,6,7,7a-tetrahydropyrrolo[1,2-c]imidazol-6-yl]carbamate]: the values for the IC50 on human Src enzyme, at human Lck enzyme and at human Yes1 enzyme were 45 nM, 17 nM and 2.1 nM, respectively.

In the case of `Cc1cc2cc(C(=O)c3cnn(-c4cnc(Oc5ccccc5F)cc4C)c3N)[nH]c2cc1NS(=O)(=O)c1cncc(C#N)c1` [Example 5-1-480, N-[2-[5-amino-1-[6-(2-fluorophenoxy)-4-methylpyridin-3-yl]pyrazole-4-carbonyl]-5-methyl-1H-indol-6-yl]-5-cyanopyridine-3-sulfonamide], the IC50 at human Src enzyme (setting [1]) amounted to 400 nM; on human Lck enzyme (setting [1]), 100 nM; on human Yes1 enzyme (setting [1]), 6.4 nM.

Regarding `Nc1c(C(=O)c2cc3cc(F)c(NS(=O)(=O)CCCF)cc3[nH]2)cnn1-c1ccc(Oc2ncccc2Cl)cc1F` [Example 5-1-036, N-[2-[5-amino-1-[4-(3-chloropyridin-2-yl)oxy-2-fluorophenyl]pyrazole-4-carbonyl]-5-fluoro-1H-indol-6-yl]-3-fluoropropane-1-sulfonamide], the IC50 at human Src enzyme turned out to be 140 nM; at human Lck enzyme it was 65 nM; on human Yes1 enzyme it was 1.5 nM.

Turning to `Cc1cc(Oc2ccccc2F)ncc1-n1ncc(C(=O)c2cc3cc(OCC(F)F)c(N4CCCC4=O)cc3[nH]2)c1N` [Example 4-25-013, 1-{2-{5-amino-1-[6-(2-fluorophenoxy)-4-methylpyridin-3-yl]pyrazole-4-carbonyl}-5-(2,2-difluoroethoxy)-1H-indol-6-yl}pyrrolidin-2-one], the IC50 came out at 16 nM at human Src enzyme (setting [1]), 4 nM on human Lck enzyme (setting [1]) and 1 nM on human Yes1 enzyme (setting [1]).

For `Cc1cc(Oc2c(F)cccc2F)ncc1-n1ncc(C(=O)c2cc3cc(F)c(N4C(=O)NC(C)(C)C4=O)cc3[nH]2)c1N` [Example 5-1-114, 3-[2-[5-amino-1-[6-(2,6-difluorophenoxy)-4-methylpyridin-3-yl]pyrazole-4-carbonyl]-5-fluoro-1H-indol-6-yl]-5,5-dimethylimidazolidine-2,4-dione], the IC50 on human Src enzyme turned out to be 41 nM; at human Lck enzyme it was 1.1 nM; on human Yes1 enzyme it was 1.7 nM.

Turning to `Cc1cc2cc(C(=O)c3cnn(-c4cnc(Oc5ccccc5Cl)cc4C)c3N)[nH]c2cc1NS(C)(=O)=O` [Example 4-2-063, N-[2-[5-amino-1-[6-(2-chlorophenoxy)-4-methylpyridin-3-yl]pyrazole-4-carbonyl]-5-methyl-1H-indol-6-yl]methanesulfonamide], the IC50 on human Src enzyme (setting [1]) worked out at 78 nM; on human Lck enzyme (setting [1]) it was 8.3 nM; on human Yes1 enzyme (setting [1]), 2 nM.

With `COc1cc2cc(C(=O)c3cnn(-c4cnc(Oc5c(F)cccc5F)cc4C)c3N)[nH]c2cc1NS(C)(=O)=O` [Example 4-1-009, N-[2-[5-amino-1-[6-(2,6-difluorophenoxy)-4-methylpyridin-3-yl]pyrazole-4-carbonyl]-5-methoxy-1H-indol-6-yl]methanesulfonamide], the IC50 on human Src enzyme (setting [1]) came out at 59 nM; at human Lck enzyme (setting [1]) it was 4.5 nM; on human Yes1 enzyme (setting [1]), 1.1 nM.

As for `Cc1cc(Oc2c(F)cccc2F)ncc1-n1ncc(C(=O)c2cc3cc(F)c(N4C(=O)N[C@@H](Cc5ccccc5)C4=O)cc3[nH]2)c1N` [Example 5-1-430, (5S)-3-[2-[5-amino-1-[6-(2,6-difluorophenoxy)-4-methylpyridin-3-yl]pyrazole-4-carbonyl]-5-fluoro-1H-indol-6-yl]-5-benzylimidazolidine-2,4-dione], the IC50 at human Src enzyme (setting [1]) came out at 280 nM; on human Lck enzyme (setting [1]) it was 37 nM; at human Yes1 enzyme (setting [1]), 8.4 nM.

With `CC(C)N1CCC(c2cc3[nH]c(C(=O)c4cnn(-c5ccc(Oc6cccc(F)c6F)cc5F)c4N)cc3cc2F)CC1` [Example 5-1-011, [5-amino-1-[4-(2,3-difluorophenoxy)-2-fluorophenyl]pyrazol-4-yl]-[5-fluoro-6-(1-propan-2-ylpiperidin-4-yl)-1H-indol-2-yl]methanone], the IC50 on human Src enzyme came to 14 nM; at human Lck enzyme it was 2.6 nM; on human Yes1 enzyme it was 0.86 nM.

On to `Cc1ccnc(S(=O)(=O)Nc2cc3[nH]c(C(=O)c4cnn(-c5cnc(Oc6ccccc6F)cc5C)c4N)cc3cc2C)c1` [Example 5-1-506, N-[2-[5-amino-1-[6-(2-fluorophenoxy)-4-methylpyridin-3-yl]pyrazole-4-carbonyl]-5-methyl-1H-indol-6-yl]-4-rmethylpyridine-2-sulfonamide], for which the IC50 at human Src enzyme (setting [1]) is 500 nM; at human Lck enzyme (setting [1]) it was 99 nM; at human Yes1 enzyme (setting [1]), 3 nM.

With `Cc1cc2cc(C(=O)c3cnn(-c4cnc(Oc5cccc(Cl)c5)cc4C)c3N)[nH]c2cc1NS(C)(=O)=O` [Example 4-2-066, N-[2-[5-amino-1-[6-(3-chlorophenoxy)-4-methylpyridin-3-yl]pyrazole-4-carbonyl]-5-methyl-1H-indol-6-yl]methanesulfonamide], the IC50 is 160 nM on human Src enzyme (setting [1]), 36 nM on human Lck enzyme (setting [1]) and 9.4 nM on human Yes1 enzyme (setting [1]).

Consider `Cc1cccc(S(=O)(=O)Nc2cc3[nH]c(C(=O)c4cnn(-c5cnc(Oc6ccccc6F)cc5C)c4N)cc3cc2C)n1` [Example 5-1-507, N-[2-[5-amino-1-[6-(2-fluorophenoxy)-4-methylpyridin-3-yl]pyrazole-4-carbonyl]-5-methyl-1H-indol-6-yl]-6-methylpyridine-2-sulfonamide], for which the IC50 came out at 480 nM at human Src enzyme (setting [1]), 92 nM on human Lck enzyme (setting [1]) and 2.8 nM on human Yes1 enzyme (setting [1]).

Turning to `Cc1cc(Oc2ccccc2F)ccc1-n1ncc(C(=O)c2cc3cc(F)c(NS(=O)(=O)NCC(C)(C)O)cc3[nH]2)c1N` [Example 4-6-004, [5-amino-1-[4-(2-fluorophenoxy)-2-methylphenyl]pyrazol-4-yl]-[5-fluoro-6-[(2-hydroxy-2-methylpropyl)sulfamoylamino]-1H-indol-2-yl]methanone], the IC50 on human Src enzyme (setting [1]) is 41 nM; at human Lck enzyme (setting [1]), 6.9 nM; on human Yes1 enzyme (setting [1]) it was 1.1 nM.

On to `Cc1cc2cc(C(=O)c3cnn(-c4cc(F)c(Oc5ccccc5F)cc4C)c3N)[nH]c2cc1NS(C)(=O)=O` [Example 5-1-199, N-[2-[5-amino-1-[5-fluoro-4-(2-fluorophenoxy)-2-methylphenyl]pyrazole-4-carbonyl]-5-methyl-1H-indol-6-yl]methanesulfonamide], for which the results for the IC50 at human Src enzyme, on human Lck enzyme and on human Yes1 enzyme were 78 nM, 37 nM and 2.7 nM, respectively.
